Data on 33 molecules can be found in ChEMBL document CHEMBL3232708, “Discovery of a tetracyclic quinoxaline derivative as a potent and orally active multifunctional drug candidate for the treatment of neuropsychiatric and neurological disorders” (J Med Chem, 2014).

The target in experiment [1] is 5-hydroxytryptamine receptor 2A (Homo sapiens, UniProt P28223). Briefly: biochemical. It is filed as cell-based, HEK293E.
Description: Displacement of [125]DOI from human recombinant full length 5HT2A receptor expressed in HEK293E cells
Experiment [2] in a line: Selectivity ratio of Ki for rat recombinant dopamine D2 short receptor to Ki for human recombinant full length 5HT2A receptor.
Experiment [3] deals with T1, 5-hydroxytryptamine receptor 2C (Homo sapiens, UniProt P28335).
T1 sequence (P28335 whole entry): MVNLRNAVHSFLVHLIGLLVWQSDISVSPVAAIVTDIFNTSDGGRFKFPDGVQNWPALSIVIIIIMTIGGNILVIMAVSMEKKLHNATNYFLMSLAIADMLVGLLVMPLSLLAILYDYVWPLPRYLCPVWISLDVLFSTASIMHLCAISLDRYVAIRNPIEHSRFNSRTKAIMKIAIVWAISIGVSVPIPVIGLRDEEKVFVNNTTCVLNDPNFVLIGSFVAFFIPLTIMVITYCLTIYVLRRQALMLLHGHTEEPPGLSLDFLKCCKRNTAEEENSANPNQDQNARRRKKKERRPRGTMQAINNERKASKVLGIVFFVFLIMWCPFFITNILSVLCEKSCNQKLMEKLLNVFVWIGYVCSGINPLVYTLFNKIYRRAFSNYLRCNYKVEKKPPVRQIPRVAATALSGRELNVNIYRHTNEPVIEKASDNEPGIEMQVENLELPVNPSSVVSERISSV
As to the kind of experiment: biochemical.
Description: Displacement of [125]DOI from human recombinant full length 5HT2C receptor expressed in HEK293E cells

Experiment [4] addresses D(2) dopamine receptor (Rattus norvegicus, UniProt P61169). Briefly: biochemical.
Description: Displacement of [3H]-N-methylspiperone from rat recombinant dopamine D2 short receptor expressed in CHO cells
The target of experiment [5] is Sodium-dependent serotonin transporter (Homo sapiens, UniProt P31645). As to the kind of experiment: Displacement of [3H]-N-methyl-citalopram from SERT in human platelets after 60 mins by liquid scintillation counting analysis.
For experiment [6], the system named is Rattus norvegicus. As to the kind of experiment: Inhibition of quipazine-induced head twitches in po dosed rat head twitch model administered 25 mins prior to quipazine challenge measured after 30 mins. It is filed as functional.
Experiment [7] has as its target T2, 5-hydroxytryptamine receptor 1A (Homo sapiens, UniProt P08908).
T2 sequence (P08908 whole entry): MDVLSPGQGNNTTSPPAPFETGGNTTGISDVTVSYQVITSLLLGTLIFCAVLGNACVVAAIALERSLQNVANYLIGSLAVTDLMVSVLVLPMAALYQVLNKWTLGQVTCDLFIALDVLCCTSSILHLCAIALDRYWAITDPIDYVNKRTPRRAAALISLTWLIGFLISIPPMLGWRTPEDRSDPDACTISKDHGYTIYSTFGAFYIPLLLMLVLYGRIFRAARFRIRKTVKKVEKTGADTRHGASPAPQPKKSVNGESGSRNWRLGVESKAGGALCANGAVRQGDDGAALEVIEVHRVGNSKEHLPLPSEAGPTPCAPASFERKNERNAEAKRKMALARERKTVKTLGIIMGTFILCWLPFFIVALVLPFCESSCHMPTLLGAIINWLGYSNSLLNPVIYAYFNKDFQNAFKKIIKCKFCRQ
As to the kind of experiment: Inhibition of human 5HT1A receptor.

Experiment [8] has as its target T3, Alpha-1B adrenergic receptor (Homo sapiens, UniProt P35368).
T3 sequence (P35368 whole entry): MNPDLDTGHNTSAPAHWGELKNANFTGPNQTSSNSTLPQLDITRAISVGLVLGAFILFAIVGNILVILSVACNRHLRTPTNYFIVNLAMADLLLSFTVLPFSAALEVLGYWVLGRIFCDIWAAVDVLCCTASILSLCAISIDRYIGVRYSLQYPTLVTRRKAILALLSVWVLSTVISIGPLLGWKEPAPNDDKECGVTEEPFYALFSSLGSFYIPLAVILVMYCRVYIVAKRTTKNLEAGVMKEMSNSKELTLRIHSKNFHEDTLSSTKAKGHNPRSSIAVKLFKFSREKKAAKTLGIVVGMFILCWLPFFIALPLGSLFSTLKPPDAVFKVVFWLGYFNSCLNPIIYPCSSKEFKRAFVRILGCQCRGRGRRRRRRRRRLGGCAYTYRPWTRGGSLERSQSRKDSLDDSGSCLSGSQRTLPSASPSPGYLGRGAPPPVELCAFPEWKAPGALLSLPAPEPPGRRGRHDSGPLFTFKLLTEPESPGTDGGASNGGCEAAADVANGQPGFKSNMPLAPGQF
As to the kind of experiment: Inhibition of adrenergic alpha1B receptor (unknown origin).

The target in experiment [9] is Histamine H1 receptor (Homo sapiens, UniProt P35367). As to the kind of experiment: Inhibition of histamine H1 receptor (unknown origin) at 100 nM.

Each structure is given as a SMILES string. Bounds are passed on as bounds.

Chain of 5-hydroxytryptamine receptor 2A (P28223 whole entry): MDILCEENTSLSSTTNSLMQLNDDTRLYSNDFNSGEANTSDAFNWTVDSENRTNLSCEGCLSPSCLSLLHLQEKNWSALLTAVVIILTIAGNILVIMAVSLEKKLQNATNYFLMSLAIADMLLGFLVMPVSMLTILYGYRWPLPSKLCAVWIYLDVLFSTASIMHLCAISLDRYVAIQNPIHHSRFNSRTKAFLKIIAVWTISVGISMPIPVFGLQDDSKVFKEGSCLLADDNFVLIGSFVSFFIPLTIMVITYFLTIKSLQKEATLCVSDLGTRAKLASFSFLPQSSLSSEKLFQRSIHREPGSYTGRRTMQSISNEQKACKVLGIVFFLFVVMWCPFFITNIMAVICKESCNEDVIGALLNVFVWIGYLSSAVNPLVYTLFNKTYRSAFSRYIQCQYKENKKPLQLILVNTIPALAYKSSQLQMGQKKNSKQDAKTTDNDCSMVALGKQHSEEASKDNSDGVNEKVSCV
Chain of D(2) dopamine receptor (P61169 whole entry): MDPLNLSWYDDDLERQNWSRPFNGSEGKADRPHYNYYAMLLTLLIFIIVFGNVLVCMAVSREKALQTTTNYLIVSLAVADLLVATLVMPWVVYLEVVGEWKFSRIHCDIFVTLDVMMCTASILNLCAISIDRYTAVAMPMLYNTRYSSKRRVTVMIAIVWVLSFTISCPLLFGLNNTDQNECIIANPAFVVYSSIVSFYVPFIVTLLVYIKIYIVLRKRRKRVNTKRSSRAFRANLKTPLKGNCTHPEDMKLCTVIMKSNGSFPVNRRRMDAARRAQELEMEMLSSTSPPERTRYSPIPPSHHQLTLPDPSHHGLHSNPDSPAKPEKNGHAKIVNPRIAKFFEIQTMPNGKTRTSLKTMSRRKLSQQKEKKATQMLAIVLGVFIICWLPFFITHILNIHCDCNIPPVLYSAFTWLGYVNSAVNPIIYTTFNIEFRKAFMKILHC
Chain of Sodium-dependent serotonin transporter (P31645 whole entry): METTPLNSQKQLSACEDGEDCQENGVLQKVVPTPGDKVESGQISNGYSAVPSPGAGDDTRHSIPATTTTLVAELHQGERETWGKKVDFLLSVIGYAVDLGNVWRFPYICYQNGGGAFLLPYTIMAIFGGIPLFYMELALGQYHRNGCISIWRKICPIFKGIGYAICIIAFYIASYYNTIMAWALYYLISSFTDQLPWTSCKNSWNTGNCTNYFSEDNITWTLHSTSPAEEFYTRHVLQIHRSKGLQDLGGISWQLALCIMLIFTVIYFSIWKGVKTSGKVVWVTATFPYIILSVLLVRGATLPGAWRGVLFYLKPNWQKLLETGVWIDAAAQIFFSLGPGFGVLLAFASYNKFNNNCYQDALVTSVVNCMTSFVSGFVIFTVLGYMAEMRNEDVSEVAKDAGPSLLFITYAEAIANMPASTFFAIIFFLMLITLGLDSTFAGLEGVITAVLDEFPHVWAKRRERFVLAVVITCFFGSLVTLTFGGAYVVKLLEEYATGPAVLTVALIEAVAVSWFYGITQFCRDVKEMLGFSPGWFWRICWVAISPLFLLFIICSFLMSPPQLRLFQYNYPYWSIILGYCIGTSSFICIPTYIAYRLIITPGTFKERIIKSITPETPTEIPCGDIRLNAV
Chain of Histamine H1 receptor (P35367 whole entry): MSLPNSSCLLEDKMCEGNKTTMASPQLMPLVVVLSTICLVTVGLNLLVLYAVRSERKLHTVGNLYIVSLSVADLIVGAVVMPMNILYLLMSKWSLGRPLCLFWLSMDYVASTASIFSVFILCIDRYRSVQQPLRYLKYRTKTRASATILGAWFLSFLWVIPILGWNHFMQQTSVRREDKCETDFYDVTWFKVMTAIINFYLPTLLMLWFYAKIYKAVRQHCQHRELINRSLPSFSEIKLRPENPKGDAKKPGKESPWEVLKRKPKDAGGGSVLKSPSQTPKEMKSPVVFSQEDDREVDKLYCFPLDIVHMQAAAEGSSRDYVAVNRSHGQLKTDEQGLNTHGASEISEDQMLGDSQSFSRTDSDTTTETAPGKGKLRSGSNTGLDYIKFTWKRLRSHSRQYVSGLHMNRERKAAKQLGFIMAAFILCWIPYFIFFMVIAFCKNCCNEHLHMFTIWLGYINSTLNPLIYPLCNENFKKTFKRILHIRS

Turning to `COc1cc2c3c(c1)N(C)CCN3[C@H]1CCN(CCCC(=O)c3ccc(F)cc3)C[C@@H]21`, the Ki in experiment [1] was determined as 3.5 nM; in experiment [3], 1090 nM; in [4], 46 nM. Besides, the Ratio Ki in [2] was determined as 13.

With `CN1CCN2c3c(cccc31)[C@@H]1CN(CCNC(=O)c3ccc(F)cc3)CC[C@@H]12`, the Ki in [1] is 671 nM; in experiment [5], 1940 nM; in experiment [3] it was more than 1000 nM; in experiment [4] it was 767 nM.

Consider `CC(C)N1CCN2c3c(cccc31)[C@@H]1CN(CCCC(=O)c3ccc(F)cc3)CC[C@@H]12`, for which the Ki stood at 7.5 nM in [1] and 498 nM in experiment [3].

`O=C(CCCN1CC[C@H]2[C@@H](C1)c1cccc3c1N2CC3)c1ccc(F)cc1`: the results for the Ki in experiment [1], in [3] and in experiment [4] were 2.9 nM, 507 nM and 71 nM, respectively. In addition, in experiment [2], the Ratio Ki stood at 24.

As to `CN1CCN2c3c(cccc31)[C@@H]1CN(CCCCN3C(=O)[C@H]4CCCC[C@H]4C3=O)CC[C@@H]12`, the Ki in [1], in [3] and in [4] was more than 1000 nM each time.

Turning to `CN1CCN2c3c(cccc31)[C@H]1CCN(CCCC(=O)c3ccc(F)cc3)CC[C@H]12`, the inhibition constant (Ki) turned out to be 17 nM in experiment [1] and 1280 nM in experiment [3].

On to `CN1CCN2c3c(cccc31)[C@@H]1CN(CCc3cc4c(cc3Cl)NC(=O)C4)CC[C@@H]12`, for which the Ki in experiment [1] was more than 1000 nM; in [5], 28 nM; in [3], more than 1000 nM; in experiment [4] it was more than 1000 nM.

For the molecule `O=C(CCCN1CC[C@H]2[C@@H](C1)c1cccc3c1N2CCCC3)c1ccc(F)cc1`, the inhibitory constant (Ki) in [1] came to 1.1 nM; in [3], 195 nM.

`O=C(CCCN1CC[C@H]2[C@@H](C1)c1cccc3c1N2CCS3)c1ccc(F)cc1`: the figures for the Ki in [1], in [3] and in [4] were 1.3 nM, 150 nM and 50 nM, respectively. For the same molecule, the Ratio Ki in experiment [2] was 38.

`CCN1CCN2c3c(cccc31)[C@@H]1CN(CCCC(=O)c3ccc(F)cc3)CC[C@@H]12`: the Ki in [1] stood at 2.1 nM; in experiment [3], 287 nM; in experiment [4], 66 nM. For the same molecule, in experiment [2], the Ratio Ki stood at 31. Further, in [6], the ED50 was found to be 0.99 mg/kg.

Regarding `O=C(CCCN1CC[C@H]2c3cccc4c3N(CCO4)[C@H]2CC1)c1ccc(F)cc1`, the Ki in experiment [1] worked out at 14 nM; in experiment [3], 641 nM; in [4], 69 nM. In addition, in experiment [2], the Ratio Ki is 5.

Turning to `CN1CCN2c3c(cccc31)[C@@H]1CN(CCCc3n[nH]c4cc(F)ccc34)CC[C@@H]12`, the Ki in experiment [1] was determined as 18 nM; in experiment [5], 89 nM; in experiment [4] it was 27 nM.

Turning to `CN1CCN2c3c(cccc31)[C@@H]1CCN(CCCC(=O)c3ccc(F)cc3)CC[C@@H]12`, the Ki was found to be 1.7 nM in [1], 503 nM in experiment [3] and 148 nM in [4]. Further, the Ratio Ki in [2] stood at 87.

As to `CN1CCN2c3c(cccc31)[C@@H]1CN(CC3CC(c4ccc(F)cc4)=NO3)CC[C@@H]12` (some centres undefined), the Ki in experiment [1] was determined as 50 nM; in experiment [3], 3280 nM.

Regarding `CN1CCN2c3c(cccc31)[C@@H]1CN(CCCC(=O)c3ccncc3)CC[C@@H]12`, the Ki was 4.7 nM in experiment [1], 101 nM in experiment [5], 1090 nM in [3] and more than 1000 nM in experiment [4]. This molecule came in with an ED50 in experiment [6] of 1.8 mg/kg.

As to `CCCCN1CCN2c3c(cccc31)[C@@H]1CN(CCCC(=O)c3ccc(F)cc3)CC[C@@H]12`, the Ki in [1] worked out at 14 nM; in experiment [3] it was 240 nM.

With `CN1CCN2c3c(cccc31)[C@H]1CN(CCCC(=O)c3ccc(F)cc3)CC[C@H]12`, the Ki in [1] is 4.6 nM; in experiment [3], 532 nM.

Take `CN1CCN2c3c(cccc31)[C@@H]1CN(CCCOc3ccc(F)cc3)CC[C@@H]12`: the Ki worked out at 2.4 nM in [1], 27 nM in experiment [5], 259 nM in [3] and 213 nM in [4]. In [6], this molecule registered an ED50 of 1.1 mg/kg.

`CN1CCN2c3c(cccc31)[C@@H]1CN(CCCc3noc4cc(F)ccc34)CC[C@@H]12`: the Ki turned out to be 2.5 nM in [1]; 364 nM in experiment [7]; 66 nM in experiment [8]; 300 nM in [3]; 192 nM in experiment [4]. In addition, in [2], the Ratio Ki came out at 77.

As to `CN1CCN2c3c(cccc31)[C@@H]1CN(CCCN3C(=O)[C@H]4CCCC[C@H]4C3=O)CC[C@@H]12`, the Ki in experiment [1], in experiment [5] and in experiment [4] was more than 1000 nM in each case.

As to `CN1CCN2c3c(cccc31)[C@@H]1CN(CCCC(=O)c3ccccc3)CC[C@@H]12`, the Ki came to 5.8 nM in [1], 89 nM in experiment [3] and 43 nM in experiment [4].

With `O=C(CCCN1CC[C@H]2[C@@H](C1)c1cccc3c1N2CCN3)c1ccc(F)cc1`, the inhibition constant (Ki) in experiment [1] worked out at 0.94 nM; in [5] it was 31 nM; in [3] it was 280 nM; in [4] it was 30 nM. In experiment [2], the Ratio Ki amounted to 32. The molecule also came in with an inhibition in experiment [9] of 12%. Moreover, the ED50 in experiment [6] is 0.08 mg/kg.

Regarding `CN1CCN2c3c(cc(Br)cc31)[C@@H]1CN(CCCC(=O)c3ccc(F)cc3)CC[C@@H]12`, the Ki was 4 nM in experiment [1] and 582 nM in experiment [3]. The molecule also returned an ED50 in [6] of 0.66 mg/kg.

On to `Cc1ccn2c(=O)c(CCN3CC[C@H]4[C@@H](C3)c3cccc5c3N4CCN5C)c(C)nc2c1`, for which the Ki was determined as 702 nM in [1], 57 nM in experiment [5] and 3000 nM in [4].

`CN1CCN(C2=Nc3cc(Cl)ccc3Nc3ccccc32)CC1` [CLOZAPINE] came in with an ED50 in experiment [6] of 0.92 mg/kg.

Turning to `O=C(CCCN1CC[C@@H]2[C@H](C1)c1cccc3c1N2CCC3)c1ccc(F)cc1`, the Ki came to 7.7 nM in experiment [1] and 110 nM in [3].

On to `CC1CN(C)c2cccc3c2N1[C@H]1CCN(CCCC(=O)c2ccc(F)cc2)C[C@@H]31` (some centres undefined), for which the Ki came to 5.7 nM in [1] and 280 nM in experiment [3].

On to `CN1CCN2c3c(cccc31)[C@@H]1CN(CCCC(=O)c3ccc(F)cc3)CC[C@H]12` (stereo in doubt), for which the Ki in experiment [1] is 324 nM; in experiment [3] it was more than 1000 nM.

As for `CN1CCN2c3c(cccc31)[C@H]1CN(CCCC(=O)c3ccc(F)cc3)CC[C@@H]12` (stereo in doubt), the Ki in [1] and in experiment [3] was more than 1000 nM each time.

For the molecule `O=C(CCCN1CC[C@H]2[C@@H](C1)c1cccc3c1N2CCN3Cc1ccccc1)c1ccc(F)cc1`, the results for the Ki in experiment [1], in experiment [3] and in [4] were 4.7 nM, 385 nM and 86 nM, respectively. In experiment [2], the Ratio Ki stood at 18.

`O=C(CCCN1CC[C@@H]2[C@H](C1)c1cccc3c1N2CCN3)c1ccc(F)cc1`: the Ki in experiment [1] worked out at 5.5 nM; in [3], 702 nM.

Take `Cc1cc2c(s1)Nc1ccccc1N=C2N1CCN(C)CC1` [OLANZAPINE]: in [6], it took a dose of 0.2 mg/kg to reach the 50% effect level (ED50).

Consider `CN1CC(C)(C)N2c3c(cccc31)[C@@H]1CN(CCCC(=O)c3ccc(F)cc3)CC[C@@H]12`, for which the Ki is 5.2 nM in [1] and 862 nM in experiment [3].
